Holding throughout (assay type): in vivo
Test [1] concerns field-grown beans (i.e., lima beans). Description: Lima bean field yield, Gustine, CA, 2010. To be noted: aqueous kinetin solution applied to foliage just prior to flowering at one pint per acre or two pints per acre; up to approx. 35 degrees Celsius. As to the method:
In this example, the effect of the plant growth regulator cytokinin, specifically kinetin, applied at the beginning of flowering and two to four weeks thereafter to field-grown beans (i.e., lima beans) in Gustine, Calif. was observed. Growing temperatures up to approximately 35 degrees Celsius were recorded. […] The difference of “t” test of 5% is significant.

Another test has as its system Arabidopsis thaliana. Description: High temperature seed/silique development, first experiment (FIG. 1). The text has this: These experiments employed the model crop plant, Arabidopsis thaliana, whose genome was mapped as early as the year 2000. To ensure uniformity, the tested plants were selected such that they were in the beginning stages of flowering and had balanced numbers of flowers across groups. The control agent as well as all tested agents were applied in a water solution containing 0.01% Silwet® super spreader (obtained from General Electric) to the leaves and flowers (i.e., foliage) of the tested plants. […] The third and fourth agents tested consisted of 6-benzyl adenine (6-BA) and kinetin (KIN)—both cytokinins—each applied at the rate of 100 μg/1 (0.1 ppm). […] Aqueous solutions of the tested agents prepared to the stated concentrations/doses were sprayed onto test groups of flowers and leaves (i.e., foliage) of Arabidopsis thaliana until runoff at one day prior to heat exposure and again at four days after the beginning of heat exposure. The total duration of heat exposure was fourteen (14) days. […] The seed pods (i.e. siliques), filled with developed seeds (siliques >7 mm long and/or >1 mm wide and/or bearing seeds), were counted just prior to the beginning of the experiment, and again after fourteen (14) days of heat exposure treatments.

The next test has as its system field-grown corn crops. Description: Field-grown corn treated before the reproductive stage, Weslaco, Tex.: yield and seed size. The text has this:
In this example, the effect of the plant growth regulator cytokinin, specifically kinetin, and applied at various times before the reproductive stages of growth, was observed. In Table 2, V7, V10, V13, and V16 refer to stages of growth of the corn plant. V7 refers to the growth stage where the collar of the seventh leaf is visible, V10 refers to the growth stage where the collar of the tenth leaf is visible, V13 refers to the growth stage where the collar of the thirteenth leaf is visible, and V16 refers to the growth stage where the collar of the sixteenth leaf is visible. V16 is also just prior to the reproductive stage of growth. The corn crops were grown in Weslaco, Tex. The water levels were either none (i.e., simply rain referred to as dryland), or drip through a “drip tape” (i.e., drip irrigation whereby sufficient water was applied for more optimal growth of the crop). Results are given for yield (measured in bushels per acre), and the weight of the seed (measured in grams per 1,000 kernels). T tests indicate whether there were differences.

The subject of the next test is field corn. Description: Field corn yield trials, Ohio, cytokinin with low potassium. Particulars: potassium ½ lb. to 1 lb. per acre with cytokinin (X-Cyte) 1 pint per acre; unreplicated field trials over three years. The text has this:
In this example, the effect of the plant growth regulator/hormone, cytokinin, applied together with low concentrations of potassium, was observed. The cytokinin that was field-applied was X-Cyte, as previously disclosed. In these unreplicated field trials, conducted in Ohio over a three year period, potassium at ½ lb. to 1 lb. per acre and cytokinin at 1 pint per acre were applied to field corn. The average increase in yield attained by applying potassium, in addition to cytokinin, was approximately fifteen (15) bushels per acre.

The mark [2] stands for this setting: EXPT 1, stage V10, variety B25DC25 R80, drip.
Setting [3] is: EXPT 1, stage V16, variety B25DC25 R80, drip.
Where [4] appears, read: EXPT 2, stage V10, variety Asgrow 7573, dry land.
Setting [5] is: EXPT 3, stage V7, variety H2684162, dry land.
[6] abbreviates: EXPT 3, stage V10, variety H2684162, dry land.
Setting [7] is: EXPT 3, stage V13, variety H2684162, dry land.
Where [8] appears, read: EXPT 3, stage V16, variety H2684162, dry land.

For the compound `c1coc(CNc2ncnc3[nH]cnc23)c1` [kinetin], in test [1], the lima bean yields entry is given as “increased significantly”. Moreover, the “number of seeds (i.e., siliques)” value with Arabidopsis thaliana (100 μg/l (0.1 ppm) sprayed on foliage 1 day before and 4 days after start of heat, 14 days at 33-36 degrees Celsius days) is reported as “increased number of seeds”. Besides, the “1,000 Kernel wt g” value turned out to be 298 g in the test with field-grown corn crops (setting [2]); 298 g with field-grown corn crops (setting [3]); 244 g with field-grown corn crops (setting [4]); 295 g in the test with field-grown corn crops (setting [5]); 296 g in the test with field-grown corn crops (setting [6]); 299 g in the test with field-grown corn crops (setting [7]). Moreover, the “1,000 Kernel wt g” value with field-grown corn crops (setting [8]) amounted to 296 g. For the same compound, the “Yield Bu/acre” value in the test with field-grown corn crops (setting [2]) is listed as 259 Bu/acre; in the test on field-grown corn crops (setting [3]), 311 Bu/acre; with field-grown corn crops (setting [4]), 149 Bu/acre; with field-grown corn crops (setting [5]), 212 Bu/acre; in the test with field-grown corn crops (setting [6]), 211 Bu/acre; in the test with field-grown corn crops (setting [7]) it was 208 Bu/acre. For the same compound, in the test on field-grown corn crops (setting [8]), the “Yield Bu/acre” value is listed as 207 Bu/acre. Also, in the test with field-grown corn crops (all treatments (stages V7 to V16, drip and dryland)), the “yield versus untreated control” value is “enhanced yield in a highly significant fashion”. In addition, the “seed size versus untreated control” value with field-grown corn crops (dryland conditions (no added water or irrigation)) is reported as “increased seed size in a highly significant fashion”.

In the case of `[K+]` [potassium], the “average increase in yield by applying potassium in addition to cytokinin” value in the test on field corn is reported as around 15 bushels per acre.

Take `OC[C@H]1O[C@@](CO)(O[C@H]2O[C@H](CO)[C@@H](O)[C@H](O)[C@H]2O)[C@@H](O)[C@@H]1O` [sucrose]: the “sugar/photosynthate deficiency (plant autophagy)” value in the test with Arabidopsis thaliana (sucrose solutions of 20 mM and 100 mM sprayed on foliage, 14 days heat exposure) is listed as “alleviated the sugar/photosynthate deficiency”.

The values above are taken from patent US20150119247A1, “Composition and Method for Stress Mitigation in Plants” (Stoller Enterprises, Inc., priority 2011, published 2015).
